Each structure is given as a SMILES string. Like-named read-outs stand apart in the source and are kept apart here. Bounds are passed on as bounds.

For experiment [1], the system named is differentiated human THP-1 cells. As to the kind of experiment: stimulated release of TNF-α from differentiated human THP-1 cells (ELISA, dose-response). The conditions noted are these: for EC50: Homo sapiens, read-out: EC50 (nM) (THP-1). The format is cell-based. Here is the method:
A screening campaign was conducted with nearly 100,000 compounds [(a) Whitby et al., Acc. Chem. Res. 2012, 45:1698-1709; and (b) Boger et al., Angew. Chem. Int. Ed. 2003, 42:4138-4176], using a newly developed functional assay that measured the stimulated release of TNF-α from treated human THP-1 cells partially differentiated along the macrophage line [unpublished results of the inventors and co-workers]. […] The libraries screened in the efforts represent a unique compound collection populated by nontraditional compounds [(a) Whitby et al., Acc. Chem. Res. 2012, 45:1698-1709; and (b) Boger et al., Angew. Chem. Int. Ed. 2003, 42:4138-4176] designed to target protein-protein [(a) Shaginian et al., J. Am. Chem. Soc. 2009, 131:5564-5572; and (b) Whitby et al., J. Am. Chem. Soc. 2011, 133:10184-10194] or protein-DNA interactions [Stover et al., J. Am. Chem. Soc. 2009, 131:3342-3348] as well as the major enzyme classes [Otrubova et al., Bioorg. Med. Chem. Lett. 2014, 24:3807-3813].
Hits were confirmed in an ELISA assay for stimulated TNF-α release from human PMA differentiated THP-1 cells and this assay was used for establishing dose-response curves and measured EC50 values.
A general note: An ELISA detects its analyte on a solid surface through an enzyme-linked reagent.

A further experiment relates to mouse macrophages. As to the kind of experiment: stimulated release of TNF-α from mouse macrophages. Format: cell-based. The following applies: Macrophage, read-out: EC50 (nM) (mouse). The source says: EC50 values are derived from dose-response curves for the stimulated release of TNF-α from differentiated THP-1 cells or mouse macrophages are shown beneath each appropriate structural formula of Compounds 8-12. Half maximal effective concentration (EC50) refers to the concentration of a drug, antibody or toxicant that induces a response halfway between the baseline and maximum after a specified exposure time. It is commonly used as a measure of a drug's potency.

[2] abbreviates: THP-1, Table 1, TNF-α release from human THP-1 cells.
[3] abbreviates: Table 1, TNF-α release from mouse macrophages.
Where [4] appears, read: THP-1, Table 2, TNF-α release from human THP-1 cells.
The mark [5] stands for this setting: Table 2, TNF-α release from mouse macrophages.
[6] abbreviates: THP-1, Table 3, TNF-α release from human THP-1 cells.
Setting [7] is: Table 3, TNF-α release from mouse macrophages.

In the case of `O=C(N[C@H]1C[C@@H]1c1ccccc1)[C@@H]1CN(C(=O)[C@H]2CC[C@H](C(=O)N3C[C@@H](C(=O)N[C@H]4C[C@@H]4c4ccccc4)[C@H](C(=O)N[C@H]4C[C@@H]4c4ccccc4)C3)CC2)C[C@H]1C(=O)N[C@H]1C[C@@H]1c1ccccc1` [Compound 42, (3S,3′S,4S,4′S)-1,1′-(trans-1,4-Cyclohexane-dicarbonyl)bis(N^3,N^4-bis((1S,2R)-2-phenyl-cyclopropyl)pyrrolidine-3,4-dicarboxamide)], the EC50 (in experiment [1] (setting [2]); in the experiment on mouse macrophages (setting [3])) was more than 5000 nM each time.
Take `O=C(N[C@H]1C[C@@H]1c1ccccc1)[C@@H]1CN(C(=O)[C@H]2CC[C@@H](C(=O)N3C[C@@H](C(=O)N[C@H]4C[C@@H]4c4ccccc4)[C@H](C(=O)N[C@H]4C[C@@H]4c4ccccc4)C3)CC2)C[C@H]1C(=O)N[C@H]1C[C@@H]1c1ccccc1` [Compound 43, (3S,3′S,4S,4′S)-1,1′-(cis-1,4-Cyclohexane-dicarbonyl)bis(N^3,N^4-bis((1S,2R)-2-phenylcyclopropyl)-pyrrolidine-3,4-dicarboxamide)]: the half-maximal effective concentration (EC50) (in experiment [1] (setting [2]); in the experiment on mouse macrophages (setting [3])) was more than 5000 nM in each case.
On to `O=C(N[C@H]1C[C@@H]1c1ccccc1)[C@@H]1CN(C(=O)c2ccc3cc(C(=O)N4C[C@@H](C(=O)N[C@H]5C[C@@H]5c5ccccc5)[C@H](C(=O)N[C@H]5C[C@@H]5c5ccccc5)C4)ccc3c2)C[C@H]1C(=O)N[C@H]1C[C@@H]1c1ccccc1` [Compound 44, (3S,3′S,4S,4′S)-1,1′-(Naphthalene-2,6-dicarbonyl)bis(N^3,N^4-bis((1S,2R)-2-phenylcyclopropyl)-pyrrolidine-3,4-dicarboxamide)], for which the values for the concentration giving a half-maximal response (EC50) (in experiment [1] (setting [4]); in the experiment on mouse macrophages (setting [5])) were 2 nM and 380 nM, respectively. The “fold less active/potent than diprovocim-1 (3)” value in experiment [1] (human THP-1 cells) was more than 10 fold.
With `O=C(N[C@H]1C[C@@H]1c1ccccc1)[C@@H]1CN(C(=O)c2ccc(C(=O)N3C[C@@H](C(=O)N[C@H]4C[C@@H]4c4ccccc4)[C@H](C(=O)N[C@H]4C[C@@H]4c4ccccc4)C3)c3ccccc23)C[C@H]1C(=O)N[C@H]1C[C@@H]1c1ccccc1` [Compound 45, (3S,3′S,4S,4′S)-1,1′-(Naphthalene-1,4-dicarbonyl)bis(N^3,N^4-bis((1S,2R)-2-phenylcyclopropyl)-pyrrolidine-3,4-dicarboxamide)], the EC50 (in experiment [1] (setting [4]); in the experiment with mouse macrophages (setting [5])) was more than 5000 nM each time.
For the molecule `O=C(N[C@H]1C[C@@H]1c1ccccc1)[C@@H]1CN(C(=O)Cc2cccc(CC(=O)N3C[C@@H](C(=O)N[C@H]4C[C@@H]4c4ccccc4)[C@H](C(=O)N[C@H]4C[C@@H]4c4ccccc4)C3)c2)C[C@H]1C(=O)N[C@H]1C[C@@H]1c1ccccc1` [Compound 46, (3S,3′S,4S,4′S)-1,1′-((1,3-Phenylene)diacetyl)-bis(N^3,N^4-bis((1S,2R)-2-phenylcyclopropyl)-pyrrolidine-3,4-dicarboxamide)], the EC50 (in experiment [1] (setting [4]); in the experiment on mouse macrophages (setting [5])) was more than 5000 nM throughout.
Regarding `O=C(N[C@H]1C[C@@H]1c1ccccc1)[C@@H]1CN(C(=O)c2cccc3c(C(=O)N4C[C@@H](C(=O)N[C@H]5C[C@@H]5c5ccccc5)[C@H](C(=O)N[C@H]5C[C@@H]5c5ccccc5)C4)cccc23)C[C@H]1C(=O)N[C@H]1C[C@@H]1c1ccccc1` [Compound 47, (3S,3′S,4S,4′S)-1,1′-(Naphthalene-1,5-dicarbonyl)bis(N^3,N^4-bis((1S,2R)-2-phenylcyclopropyl)-pyrrolidine-3,4-dicarboxamide)], the concentration giving a half-maximal response (EC50) (in experiment [1] (setting [4]); with mouse macrophages (setting [5])) was more than 5000 nM throughout.
In the case of `O=C(N[C@H]1C[C@@H]1c1ccccc1)[C@@H]1CN(C(=O)Cc2ccc(CC(=O)N3C[C@@H](C(=O)N[C@H]4C[C@@H]4c4ccccc4)[C@H](C(=O)N[C@H]4C[C@@H]4c4ccccc4)C3)cc2)C[C@H]1C(=O)N[C@H]1C[C@@H]1c1ccccc1` [Compound 48, (3S,3′S,4S,4′S)-1,1′-((1,4-Phenylene)diacetyl)-bis(N^3,N^4-bis((1S,2R)-2-phenylcyclopropyl)-pyrrolidine-3,4-dicarboxamide)], the EC50 (in experiment [1] (setting [4]); with mouse macrophages (setting [5])) was more than 5000 nM throughout.
Turning to `O=C(N[C@H]1C[C@@H]1c1ccccc1)[C@@H]1CN(C(=O)c2ccc(C(=O)N3C[C@@H](C(=O)N[C@H]4C[C@@H]4c4ccccc4)[C@H](C(=O)N[C@H]4C[C@@H]4c4ccccc4)C3)s2)C[C@H]1C(=O)N[C@H]1C[C@@H]1c1ccccc1` [Compound 49, (3S,3′S,4S,4′S)-1,1′-(Thiophene-2,5-dicarbonyl)-bis(N^3,N^4-bis((1S,2R)-2-phenylcyclopropyl)-pyrrolidine-3,4-dicarboxamide)], the EC50 (as a rule, the concentration at which the effect is half-maximal) in experiment [1] (setting [6]) is 350 nM; with mouse macrophages (setting [7]), more than 5000 nM.
The matching figures for `O=C(N[C@H]1C[C@@H]1c1ccccc1)[C@@H]1CN(C(=O)c2cnc(C(=O)N3C[C@@H](C(=O)N[C@H]4C[C@@H]4c4ccccc4)[C@H](C(=O)N[C@H]4C[C@@H]4c4ccccc4)C3)cn2)C[C@H]1C(=O)N[C@H]1C[C@@H]1c1ccccc1` [Compound 50, (3S,3′S,4S,4′S)-1,1′-(Pyrazine-2,5-dicarbonyl)-bis(N^3,N^4-bis((1S,2R)-2-phenylcyclopropyl)-pyrrolidine-3,4-dicarboxamide)]: 130 nM and more than 5000 nM.
As for `O=C(N[C@H]1C[C@@H]1c1ccccc1)[C@@H]1CN(C(=O)c2ccc(C(=O)N3C[C@@H](C(=O)N[C@H]4C[C@@H]4c4ccccc4)[C@H](C(=O)N[C@H]4C[C@@H]4c4ccccc4)C3)nc2)C[C@H]1C(=O)N[C@H]1C[C@@H]1c1ccccc1` [Compound 51, (3S,3′S,4S,4′S)-1,1′-(Pyridine-2,5-dicarbonyl)-bis(N^3,N^4-bis((1S,2R)-2-phenylcyclopropyl)-pyrrolidine-3,4-dicarboxamide)], the figures for the concentration giving a half-maximal response (EC50) (in experiment [1] (setting [6]); with mouse macrophages (setting [7])) were 4 nM and 270 nM, respectively.
The matching figures for `O=C(N[C@H]1C[C@@H]1c1ccccc1)[C@@H]1CN(C(=O)/C=C/C=C/C(=O)N2C[C@@H](C(=O)N[C@H]3C[C@@H]3c3ccccc3)[C@H](C(=O)N[C@H]3C[C@@H]3c3ccccc3)C2)C[C@H]1C(=O)N[C@H]1C[C@@H]1c1ccccc1` [Compound 52, (3S,3′S,4S,4′S)-1,1′-((2E,4E)-Hexa-2,4-dienedioyl)-bis(N^3,N^4-bis((1S,2R)-2-phenylcyclopropyl)-pyrrolidine-3,4-dicarboxamide)]: more than 5000 nM and more than 5000 nM.
Taken in the same sequence, the figures for `O=C(N[C@H]1C[C@@H]1c1ccccc1)[C@@H]1CN(C(=O)c2ccc(C(=O)N3C[C@@H](C(=O)N[C@H]4C[C@@H]4c4ccccc4)[C@H](C(=O)N[C@H]4C[C@@H]4c4ccccc4)C3)c(O)c2)C[C@H]1C(=O)N[C@H]1C[C@@H]1c1ccccc1` [Compound 53, (3S,3′S,4S,4′S)-1,1′-(2-Hydroxyterephthaloyl)-bis(N^3,N^4-bis((1S,2R)-2-phenylcyclopropyl)pyrrolidine-3,4-dicarboxamide)] were 0.2 nM and 130 nM.
The matching figures for `O=C(N[C@H]1C[C@@H]1c1ccccc1)[C@@H]1CN(C(=O)c2ccc(C(=O)N3C[C@@H](C(=O)N[C@H]4C[C@@H]4c4ccccc4)[C@H](C(=O)N[C@H]4C[C@@H]4c4ccccc4)C3)c([N+](=O)[O-])c2)C[C@H]1C(=O)N[C@H]1C[C@@H]1c1ccccc1` [Compound 54, (3S,3′S,4S,4′S)-1,1′-(2-Nitroterephthaloyl)-bis(N^3,N^4-bis((1S,2R)-2-phenylcyclopropyl)pyrrolidine-3,4-dicarboxamide)]: 20 nM and more than 5000 nM.
Turning to `Nc1cc(C(=O)N2C[C@@H](C(=O)N[C@H]3C[C@@H]3c3ccccc3)[C@H](C(=O)N[C@H]3C[C@@H]3c3ccccc3)C2)ccc1C(=O)N1C[C@@H](C(=O)N[C@H]2C[C@@H]2c2ccccc2)[C@H](C(=O)N[C@H]2C[C@@H]2c2ccccc2)C1` [Compound 55, (3S,3′S,4S,4′S)-1,1′-(2-Amino-terephthaloyl)-bis(N^3,N^4-bis((1S,2R)-2-phenylcyclopropyl)-pyrrolidine-3,4-dicarboxamide)], the EC50 in experiment [1] (setting [6]) was 1 nM; with mouse macrophages (setting [7]), 140 nM.
Turning to `C#CCOc1cc(C(=O)N2C[C@@H](C(=O)N[C@H]3C[C@@H]3c3ccccc3)[C@H](C(=O)N[C@H]3C[C@@H]3c3ccccc3)C2)ccc1C(=O)N1C[C@@H](C(=O)N[C@H]2C[C@@H]2c2ccccc2)[C@H](C(=O)N[C@H]2C[C@@H]2c2ccccc2)C1` [Compound 56, (3S,3′S,4S,4′S)-1,1′-(2-(Prop-2-yn-1-yloxy)-terephthaloyl)bis(N^3,N^4-bis((1S,2R)-2-phenylcyclo-propyl)pyrrolidine-3,4-dicarboxamide)], the results for the EC50 (in experiment [1] (setting [6]); in the experiment with mouse macrophages (setting [7])) were 15 nM and 750 nM, respectively.

The values above are taken from patent US11040959B2, “Diprovocims: a new and potent class of TLR agonists” (The Scripps Research Institute, priority 2016, dated 2021).
